The subject of one data set is A549. Briefly: Cytotoxicity against human A549 cells assessed as inhibition of cell growth measured after 72 hrs by MTT assay. To be noted: A549, 72 h. It counts as functional, cell-based.
For a further data set, the system named is MCF7. Briefly: Cytotoxicity against human MCF7 cells assessed as inhibition of cell growth measured after 72 hrs by MTT assay. It counts as functional, cell-based. The note with it: MCF7, 72 h.
In a further data set the test system is SK-MEL-28. Briefly: Cytotoxicity against human SK-MEL-28 cells assessed as inhibition of cell growth measured after 72 hrs by MTT assay. It counts as functional, cell-based. To be noted: SK-MEL-28, 72 h. For orientation: Formazan colour is commonly taken as a measure of viable cells.
In data set [1] the test system is HCT-116. Briefly: Cytotoxicity against human HCT-116 cells assessed as inhibition of cell growth measured after 72 hrs by MTT assay. It counts as functional, cell-based. The note with it: HCT-116, 72 h.
The next data set concerns BT-474. Briefly: Cytotoxicity against human BT-474 cells assessed as inhibition of cell growth measured after 72 hrs by MTT assay. It counts as functional, cell-based. To be noted: BT-474, 72 h.
A short description of data set [2]: Cytotoxicity against rat NRK cells assessed as inhibition of cell growth measured after 72 hrs by MTT assay. It counts as toxicity, cell-based.
Data set [3] concerns HCT-116. As to the kind of experiment: Induction of apoptosis in human HCT-116 cells assessed as reduction in cell viability at 3.36 to 13.46 uM measured after 48 hrs by phase contrast microscope. It counts as functional, cell-based. To be noted: dose 3.36-13.46 µM.
The test system of data set [4] is HCT-116. As to the kind of experiment: Induction of morphological changes in human HCT-116 cells assessed as cell detachment at 3.36 to 13.46 uM measured after 48 hrs by phase contrast microscope. It counts as functional, cell-based. The note with it: dose 3.36-13.46 µM.
In data set [5] the test system is HCT-116. As to the kind of experiment: Induction of morphological changes in human HCT-116 cells assessed as cell nucleus shrinkage at 3.36 to 13.46 uM measured after 48 hrs by phase contrast microscope. To be noted: dose 3.36-13.46 µM. It counts as functional, cell-based.
Data set [6] concerns HCT-116. As to the kind of experiment: Induction of morphological changes in human HCT-116 cells assessed as formation of apoptotic bodies incubated for 24 hrs by acridine orange/ethidium bromide staining based fluorescence microscopic analysis. It counts as functional, cell-based.
In data set [7] the test system is HCT-116. Briefly: Induction of morphological changes in human HCT-116 cells assessed as formation of necrotic bodies incubated for 24 hrs by acridine orange/ethidium bromide staining based fluorescence microscopic analysis. It counts as functional, cell-based.
The subject of data set [8] is HCT-116. Briefly: Induction of nuclear morphological changes in human HCT-116 cells assessed as change in nuclear shape measured after 48 hrs by DAPI-staining based fluorescence microscopic analysis. It counts as functional, cell-based.
For data set [9], the system named is HCT-116. As to the kind of experiment: Induction of nuclear morphological changes in human HCT-116 cells assessed as change in nuclear condensation measured after 48 hrs by DAPI-staining based fluorescence microscopic analysis. It counts as functional, cell-based.
The subject of data set [10] is HCT-116. As to the kind of experiment: Induction of nuclear morphological changes in human HCT-116 cells assessed as horseshoe shaped nuclei formation measured after 48 hrs by DAPI-staining based fluorescence microscopic analysis. It counts as functional, cell-based.
Data set [11] concerns HCT-116. As to the kind of experiment: Induction of ROS production in human HCT-116 cells at 3.36 uM incubated for 72 hrs by DCFDA staining based fluorescence microscopic analysis. It counts as functional, cell-based.
Data set [12] concerns HCT-116. As to the kind of experiment: Inhibition of cell invasion in human HCT-116 cells at 3.36 to 13.46 uM measured after 48 hrs by phase contrast microscopic analysis. It counts as functional, cell-based. The note with it: dose 3.36-13.46 µM.

pIC50: −log10 of the molar value. The source made the active and inactive calls. The calls are words filed in the database; no cut-off is given here. Bounds are passed on as bounds.

What is called pIC50 is the negative decadic logarithm of the IC50, by convention in mol/L. Usually IC50 stands for the concentration that gives 50% inhibition. `Cc1ccc(CN2C(=O)C(CNS(=O)(=O)C(C)(C)C)(Sc3nnc(-c4ccccc4)o3)c3ccccc32)cc1` (stereo unspecified): the pIC50 in the data set on A549 was 4.85; in the data set with MCF7 it was 4.86; in the data set on SK-MEL-28, 4.77; in the data set with HCT-116 [1] it was 5.17; in the data set with BT-474, 4.91. Further, the IC50 at 72 h in [2] came out at 18 µM. Also, the outcome with HCT-116 [3], with HCT-116 [4], in the data set with HCT-116 [5], in the data set with HCT-116 [7] and with HCT-116 [11] was Active. Further, the Activity entry in the data set with HCT-116 [6], with HCT-116 [8], with HCT-116 [9] and with HCT-116 [10] was “Dose-Dependent Effect” throughout. Moreover, in the data set on HCT-116 [12], the inhibition entry was “Active”.

For `CC(C)(C)S(=O)(=O)NCC1(Sc2nnc(-c3cccc(Br)c3)o2)C(=O)N(Cc2ccccc2)c2ccccc21` (stereo unspecified), the negative-log IC50 (pIC50) is 4.92 in the data set on A549; 4.89 with MCF7; 4.90 in the data set with SK-MEL-28; 4.92 in the data set with HCT-116 [1]; 4.90 in the data set on BT-474. In addition, the IC50 at 72 h in [2] amounted to 14.1 µM.

As to `Cc1ccc(CN2C(=O)C(CNS(=O)(=O)C(C)(C)C)(Sc3nc4ccccc4[nH]3)c3ccccc32)cc1` (stereo unspecified), the negative-log IC50 (pIC50) with A549 is 4.88; in the data set on MCF7, 4.86; with SK-MEL-28 it was 4.47; in the data set with HCT-116 [1], 5.05; in the data set with BT-474 it was 4.87. Further, in data set [2], the IC50 at 72 h was found to be 21.8 µM.

For `CC(C)(C)S(=O)(=O)NCC1(Sc2nnc(-c3ccc(Cl)cc3)n2-c2ccccc2)C(=O)N(Cc2ccccc2)c2ccccc21` (stereo unspecified), the negative logarithm of the IC50 (pIC50) in the data set with A549 is < 4.30; with MCF7, 4.35; in the data set with SK-MEL-28, < 4.30; with HCT-116 [1], < 4.30; in the data set with BT-474, 4.80. In addition, the IC50 at 72 h in [2] came out at 24.8 µM.

Take `CN1C(=O)C(CNS(=O)(=O)C(C)(C)C)(Sc2nc3ccccc3[nH]2)c2cc(Br)ccc21` (stereo unspecified): the pIC50 in the data set with A549 was 4.74; with MCF7, 4.89; in the data set on SK-MEL-28, 4.77; with HCT-116 [1] it was 4.91; with BT-474, 4.88. Moreover, the IC50 at 72 h in data set [2] was 25.7 µM.

For the molecule `CC(C)(C)S(=O)(=O)NCC1(Sc2nc3ccccc3[nH]2)C(=O)N(Cc2ccccc2)c2ccccc21` (stereo unspecified), the negative logarithm of the IC50 (pIC50) with A549 is 4.51; in the data set on MCF7, < 4.30; in the data set on SK-MEL-28, 4.65; in the data set with HCT-116 [1], 4.37; in the data set on BT-474, 4.82. Besides, the IC50 at 72 h in data set [2] amounted to 17.9 µM.

Regarding `Cc1ccc2c(c1)C(CNS(=O)(=O)C(C)(C)C)(Sc1nnc(-c3ccccc3)o1)C(=O)N2Cc1ccccc1` (stereo unspecified), the pIC50 was < 4.30 with A549; 4.47 with MCF7; 4.81 in the data set with SK-MEL-28; < 4.30 with HCT-116 [1]; 4.63 with BT-474. Also, the concentration for half-maximal inhibition (IC50) at 72 h in data set [2] is 12.7 µM.

Regarding `COc1cccc(-c2nnc(SC3(CNS(=O)(=O)C(C)(C)C)C(=O)N(Cc4ccc(Br)cc4)c4ccccc43)n2-c2ccccc2)c1` (stereo unspecified), the negative-log IC50 (pIC50) in the data set on A549 was < 4.30; in the data set on MCF7, 4.45; in the data set with SK-MEL-28, 4.58; in the data set with HCT-116 [1], < 4.30; in the data set on BT-474, 4.86. Besides, the half-inhibitory concentration (IC50) at 72 h in data set [2] turned out to be 21.8 µM.

Turning to `CC(C)(C)S(=O)(=O)NCC1(Sc2nnc(-c3ccc(Cl)c(Cl)c3)o2)C(=O)N(Cc2ccc(Br)cc2)c2ccccc21` (stereo unspecified), the pIC50 with A549 was 4.38; in the data set on MCF7, < 4.30; with SK-MEL-28 it was 4.86; with HCT-116 [1], < 4.30; in the data set with BT-474, 4.82. Moreover, in data set [2], the concentration for half-maximal inhibition (IC50) at 72 h came to 21.9 µM.

With `COc1cccc(-c2nnc(SC3(CNS(=O)(=O)C(C)(C)C)C(=O)N(Cc4ccccc4)c4ccccc43)o2)c1` (stereo unspecified), the pIC50 in the data set with A549 was 4.51; in the data set with MCF7 it was < 4.30; in the data set with SK-MEL-28, 4.82; with HCT-116 [1], < 4.30; with BT-474, 4.85. Also, the concentration for half-maximal inhibition (IC50) at 72 h in data set [2] stood at 22.9 µM.

`Cc1ccc2c(c1)C(CNS(=O)(=O)C(C)(C)C)(Sc1nc3ccccc3s1)C(=O)N2C` (stereo unspecified): the negative logarithm of the IC50 (pIC50) in the data set with A549 is 4.74; in the data set on MCF7 it was 4.77; in the data set on SK-MEL-28, 4.63; in the data set on HCT-116 [1], 5.05; in the data set with BT-474 it was 4.88. In addition, the half-inhibitory concentration (IC50) at 72 h in [2] was 26.8 µM.

For `CC(C)(C)S(=O)(=O)NCC1(Sc2nnc(-c3ccccc3)o2)C(=O)N(Cc2ccccc2)c2ccc(F)cc21` (stereo unspecified), the pIC50 in the data set with A549 was 4.42; with MCF7 it was 4.39; in the data set on SK-MEL-28 it was 4.52; in the data set with HCT-116 [1], < 4.30; in the data set with BT-474 it was 4.78. Also, in data set [2], the IC50 at 72 h was 33.3 µM.

Consider `CC(C)(C)S(=O)(=O)NCC1(Sc2nnc(-c3ccccc3)o2)C(=O)N(Cc2ccccc2)c2ccccc21` (stereo unspecified), for which the pIC50 in the data set with A549 was 4.85; in the data set with MCF7, 4.81; in the data set on SK-MEL-28 it was 4.75; with HCT-116 [1], 4.81; in the data set with BT-474, 4.84. The IC50 at 72 h in data set [2] worked out at 31.9 µM.

Regarding `O=c1[nH]cc(F)c(=O)[nH]1` [FLUOROURACIL], the pIC50 in the data set with A549 was 4.60; in the data set with MCF7, 4.61; in the data set on HCT-116 [1], 4.78.

For the origin of these results see ChEMBL document CHEMBL5325462, “Regioselective synthesis and in vitro cytotoxicity evaluation of 3-thiooxindole derivatives: Tubulin polymerization inhibition and apoptosis inducing studies” (Bioorg Med Chem, 2023).
